# Key:
# rats induced by Aβ1-42 [1] = test: rat Y-maze experiment, Aβ1-42 AD model; assay type: in vivo, Sprague Dawley rats; settings: 30 mg/kg
# Description: The rat Y-maze experiment: on the 12th day after the administration, the Y-maze experiment was performed on the groups of rats. […] In the experiment, the rats were placed into the tip of the arm A, and were permitted to freely enter and leave the three arms. The total time quantity of entering the arms and the order of entering the arms within 8 min of each of the rats were recorded. By using the continuous entering into the three different arms as one correct alternate reaction, the time quantity of the correct alternate reactions was recorded. The spontaneous alternate reaction rate is used to reflect the capacity of space working memory.
# rats induced by Aβ1-42 [2] = test: rat new-object-distinguishing experiment, Aβ1-42 AD model; set-up: species or system Sprague Dawley rats; settings: in vivo
# Description: (§3) The mice were randomly divided into 6 groups, a sham-operation control group, a model group, three groups were fed with 25, 50 and 100 mg/kg of carrimycin, and one group was fed with 30 mg/kg of the positive drug resveratrol.
# (§4) Experimental process: Aβ1-42 was dissolved by using a hexafluoroisopropanol/sterile normal-saline solution to obtain the concentration of 2 μg/μL, incubated and aged at 4° C. for 24 h to form a AO oligomer, and reserved. […] 2.5 μL, (0.5 μL/min) was injected within 5 min into each side of the hippocampus, and the needle was retained for 5 min, to result in a rat dementia model.
# On the next day after the model was established, the sham-operation control group and the model group were administered intragastrically by using the corresponding solvents, the other experimental groups were administered intragastrically by using 25, 50 and 100 mg/kg of carrimycin and 30 mg/kg of the positive drug resveratrol. […]
# The rat new-object-distinguishing experiment: on the 14-15th day after the administration, the new-object-distinguishing experiment was performed on the groups of rats. […] The test was performed on the third day, in which each time one rat was placed into the open field to firstly freely explore for 3min, and was then taken out, 2 same objects (A1, A2) were placed into the center of the open field, the rat was placed into the open field, and the durations (tA1, tA2) during which the rat exploreed the two objects within 5 min were recorded. After 1 h, the object A2 was replaced with a new object B, the rat was placed into the open field again, and the durations (tA1, tB) during which the rat explored the two objects were recorded. After 24 h, the object B was replaced with an object C, the rat was placed into the open field again, and the durations (tA1, tC) during which the rat explored the two objects were recorded. […] The preferential index and the discrimination index to the new objects are calculated. […]
# rats induced by Aβ1-42 [3] = test: rat Morris water-maze experiment, Aβ1-42 AD model; assay type: in vivo, Sprague Dawley rats; settings: 30 mg/kg
# Description: as §3, §4
# On the next day after the model was established, the sham-operation control group and the model group were administered intragastrically by using the corresponding solvents, the other experimental groups were administered intragastrically by using 25, 50 and 100 mg/kg of carrimycin and 30 mg/kg of the positive drug resveratrol. On the 12th day after Aβ1-42 was injected into the hippocampus, the experiments of Y maze, new-object distinguishing and water maze were carried out in sequence. Continue to administer during the behavioral experiment 1 time per day till the behavioristics end.
# The rat water-maze experiment: on the 16-20th day after the administration, the Morris water-maze experiment was performed on the groups of rats. The Morris water-maze experiment aims at investigating the influence by Carrimycin on the space studying memory disorder. The water-maze apparatus is composed of a black stainless-steel circular water pool with the diameter of 1.5 meters and the height of 50 centimeters and a circular metal platform with the diameter of 10 centimeters, and the platform can freely move. Before the experiment, the water pool was filled with water (water temperature 24±1° C.) to cause the water level to be above the platform by 1 centimeter. In the training phase, training is performed 1 time in the morning and afternoon per day for 6 days. […]
# INS-1 cell = test: protection of INS-1 islet cell against alloxan damage (MTT); assay type: cell-based, Rat; settings: 0.5 mM; 24 mmol/L alloxan damage, 24 h
# Description: the INS-1 cell was the adherent cell, the INS-1 cell in the logarithmic growth phase was used, digested by using trypsin, beated by using a complete medium, and prepared into a single-cell suspension. The cell concentration was adjusted to be 1*10^5/ml, and the cell was inoculated into the 96-well culture plate with 100 μl per well, cultured in the incubator at 5% CO2 and 37° C. for 24 h. The cells were grouped according to the demands of the experiment, the cell of the administration groups were administered with 24 mmol/L of alloxan damage, simultaneously were administered with the drug to be tested Carrimycin with different concentrations (0.2, 0.4 and 0.8 mM), 4 complex wells for each of the concentrations were provided, and all groups were continued to be cultured at 37° C. for 24 h. Additionally a normal control group (no medication administered), a model group (merely administered with alloxan damage) and a positive control group (based on the alloxan treatment, 0.5 mmol/L of metformin was added) were provided. […] And the optical density of all groups were measured by using a microplate reader at 492 nm.
# The survival rate of the INS-1 cell treated by the drug is calculated by using the following formula: Survival rate of INS cell (%)=A492 (administration group)/A492 (normal control group)×100%
# [4] = body weight of alloxan diabetes mice; assay type: in vivo, Kunming mice; settings: 200 mg/kg, gavage
# Description: (§1) The study on the effect of Carrimycin on reducing blood sugar comprises Kunming mice was selected, single intraperitoneal injection with 160 mg/kg of alloxan was subjected to Kunming mice to form model mice. The mice whose values of blood sugar are stable at the modeling level (10˜25mmol/L) were selected, divided randomly into a model control group, a positive control group (200 mg/kg of metformin) and an administration group (with Carrimycin as the drug, 25, 50 and 100 mg/kg). Simultaneously a normal control group was provided, and was given gastric normal saline.
# (§2) After the model was made and gavage was given for 30 and 45 days, the mice were fasted for 16 hours, and the mice were weighed. After weighing, blood was collected at the tail tip, and the fasting blood sugar was measured by using a blood-sugar meter. After the value of fasting blood sugar was measured, the […] were administered by intragastric administration once. After 2 h, mice in each group were given a glucose solution by gavage at 2 g/kg, and blood was collected at the tip of the tail. The blood sugar values at 0, 0.5 and 2 h were measured after the administration of glucose (Bg0, Bg0.5 and Bg2), and the area (AUC) (reaction sugar tolerance) under the blood sugar curve was calculated by using the following formula: AUC=0.25*(Bg0+4*Bg0.5+3*Bg2); and […]
# diabetes mouse [5] = test: fasting blood sugar of alloxan diabetes mice; assay type: in vivo, Kunming mice; settings: 200 mg/kg
# Description: as §1, §2
# diabetes mouse [6] = test: sugar tolerance of diabetes mouse (glucose 2 g/kg by gavage); assay type: in vivo, Kunming mice; settings: 200 mg/kg; for Blood sugar value 0 h: 0 h after glucose; for Blood sugar value 0.5 h: 0.5 h after glucose; for Blood sugar value 2 h: 2 h after glucose
# Description: as §1, §2
# diabetes mouse [7] = test: fasting insulin (ELISA) and insulin resistance of alloxan diabetes mice; assay type: in vivo, Kunming mice; settings: 200 mg/kg; 45 days; fasting blood sugar*fasting insulin/22.5
# Description: as §1
# After the model was made and gavage was given for 45 days, the mice were fasted for 16 h, and blood was collected from the fundus venous plexus. Before taking blood, the capillary was moistened with heparin, 0.5 ml of blood was collected from the fundus venous plexus, centrifuged at 3500 r/min for 10 min, and plasma was separated for testing. The supernatant was sucked, and the insulin was measured by using the ELISA method. […]
# The measurement of the insulin resistance: after the concentrations of fasting blood sugar and insulin have been measured, the insulin resistance was calculated by using the formula: insulin resistance=fasting blood sugar*fasting insulin/22.5 (it is recently reported that when it is>2.6, it is determined that insulin resistance exists).
compound,measurement,setting,value
"Oc1ccc(C=Cc2cc(O)cc(O)c2)cc1 [Resveratrol, resveratrol]",total time quantities of entering the arms,"rats induced by Aβ1-42 [1]; between groups, FIG. 2",did not have a significant difference
same,Y-maze spontaneous alternate reaction rate,"rats induced by Aβ1-42 [1]; compared with the model group, FIG. 1",significantly increased
same,Discrimination index on A1 and A2 (%),rats induced by Aβ1-42 [2],52.87 ± 5.43%
same,discrimination indexes on the new objects,rats induced by Aβ1-42 [2],significantly increased
same,preferential indexes on the new objects,rats induced by Aβ1-42 [2],significantly increased
same,escape latent periods,"rats induced by Aβ1-42 [3]; 2nd day, trend maintained on 3rd and 4th days, compared with the model group, FIG. 7",significantly decreased
same,swimming speeds,"rats induced by Aβ1-42 [3]; between groups, FIG. 9",did not have a significant difference
same,time quantities of passing through of the platform,"rats induced by Aβ1-42 [3]; compared with the model group, FIG. 8",significantly increased
CN(C)C(=N)N=C(N)N [metformin],Survival rate (%),INS-1 cell,92.91 ± 6.69 %
same,Body weight gain on 30th day,[4],5.94 ± 1.03 g
same,Body weight gain on 45th day,[4],7.26 ± 1.48 g
same,"blood sugar, 0 day",diabetes mouse [5]; 0 day,18.07 ± 1.26^*** mmol/L
same,"blood sugar, 30th day","diabetes mouse [5]; 30th day, fasted 16 h",14.94 ± 1.03^**# mmol/L
same,"blood sugar, 45th day","diabetes mouse [5]; 45th day, fasted 16 h",10.24 ± 1.07^*## mmol/L
same,AUC under the blood sugar curve,diabetes mouse [6]; 30th day,33.6 ± 2.7^**#
same,Blood sugar value 0 h,diabetes mouse [6]; 30th day,14.6 ± 1.4^**
same,Blood sugar value 0.5 h,diabetes mouse [6]; 30th day,19.8 ± 1.8^**##
same,Blood sugar value 2 h,diabetes mouse [6]; 30th day,13.5 ± 1.9^**#
same,AUC under the blood sugar curve,diabetes mouse [6]; 45th day,32.3 ± 2.1^**#
same,Blood sugar value 0 h,diabetes mouse [6]; 45th day,14.1 ± 1.5^**
same,Blood sugar value 0.5 h,diabetes mouse [6]; 45th day,18.9 ± 1.7^**#
same,Blood sugar value 2 h,diabetes mouse [6]; 45th day,13.2 ± 1.7^**#
same,Insulin resistance (IR),diabetes mouse [7],1.06^**###
